Measurements reported in ChEMBL document CHEMBL3813667, “Triterpene sapogenin-polyarginine conjugates exhibit promising antibacterial activity against Gram-positive strains” (Bioorg Med Chem, 2016).
Converted amounts (≈) assume the structure as drawn. Where a SMILES comes first, the peptide text is derived from it.

Experiments:
[1] = tested on: Bacillus spizizenii; assay: Antibacterial activity against Bacillus subtilis ATCC 6633 after 16 hrs by broth microdilution method; type: functional; conditions: ATCC 6633, 16 h
[2] = tested on: Staphylococcus aureus; assay: Antibacterial activity against Staphylococcus aureus ATCC 25923 after 16 hrs by broth microdilution method; type: functional; conditions: ATCC 25923, 16 h
[3] = tested on: Escherichia coli; assay: Antibacterial activity against Escherichia coli ATCC 25922 after 16 hrs by broth microdilution method; type: functional; conditions: ATCC 25922, 16 h
[4] = Therapeutic index, ratio of HC50 for human erythrocytes to MIC for Staphylococcus aureus ATCC 25923; conditions: read-out: TI
[5] = Therapeutic index, ratio of HC50 for human erythrocytes to MIC for Bacillus subtilis ATCC 6633; conditions: read-out: TI
[6] = Toxicity against human erythrocytes assessed as hemolysis after 1 hr by spectrophotometric analysis; type: cell-based, Erythrocyte
[7] = Solubility of the compound in water at 40 mg sonicated for 15 mins at 25 degC measured after 5 hrs; type: physicochemical

| Molecule | MIC [1] [µM] | MIC [2] [µM] | MIC [3] [µM] | solubility at 5 h [7] [mg/mL] | selectivity ratio [4] | selectivity ratio [5] | HC50 at 1 h [6] [µM] |
| --- | --- | --- | --- | --- | --- | --- | --- |
| N=C(N)NCCC[C@H](NC(=O)[C@H](CCCNC(=N)N)NC(=O)[C@@H](N)CCCNC(=N)N)C(=O)O (H-Arg-Arg-Arg-OH) | > 1030 | > 1030 | > 1300 | – | – | – | – |
| C=C(C)[C@@H]1CC[C@]2(C(=O)OCc3cn(CC(=O)N[C@@H](CCCNC(=N)N)C(=O)O)nn3)CC[C@]3(C)[C@H](CC[C@@H]4[C@@]5(C)CC[C@H](O)C(C)(C)[C@@H]5CC[C@]43C)[C@@H]12 | 83 (≈ 62.4 µg/mL) | > 166 | > 166 | 1.3 (≈ 1.73 mM) | – | 5 | 397 |
| C[C@H]1[C@H](C)CC[C@]2(C(=O)OCc3cn(CC(=O)N[C@@H](CCCNC(=N)N)C(=O)O)nn3)CC[C@]3(C)C(=CC[C@@H]4[C@@]5(C)CC[C@H](O)C(C)(C)[C@@H]5CC[C@]43C)[C@H]12 | 5.2 (≈ 3.91 µg/mL) | 10.4 (≈ 7.82 µg/mL) | > 166 | – | 8 | 16 | 83 |
| N=C(N)NCCC[C@H](N)C(=O)O [ARGININE] | > 2890 | > 2890 | > 2890 | – | – | – | – |
| C[C@H]1[C@H](C)CC[C@]2(C(=O)OCc3cn(CC(=O)N[C@@H](CCCNC(=N)N)C(=O)N[C@@H](CCCNC(=N)N)C(=O)O)nn3)CC[C@]3(C)C(=CC[C@@H]4[C@@]5(C)CC[C@H](O)C(C)(C)[C@@H]5CC[C@]43C)[C@H]12 | 4.3 (≈ 3.91 µg/mL) | 4.3 (≈ 3.91 µg/mL) | > 138 | – | 11 | 11 | 49 |
| H-RRRRR-OH | 313 | > 627 | > 627 | – | – | – | – |
| C[C@H]1[C@H](C)CC[C@]2(C(=O)O)CC[C@]3(C)C(=CC[C@@H]4[C@@]5(C)CC[C@H](O)C(C)(C)[C@@H]5CC[C@]43C)[C@H]12 [URSOLIC ACID] | 68 (≈ 31.1 µg/mL) | 137 (≈ 62.6 µg/mL) | > 1100 | – | – | – | – |
| N=C(N)NCCC[C@H](NC(=O)[C@H](CCCNC(=N)N)NC(=O)[C@H](CCCNC(=N)N)NC(=O)[C@H](CCCNC(=N)N)NC(=O)[C@H](CCCNC(=N)N)NC(=O)[C@H](CCCNC(=N)N)NC(=O)[C@H](CCCNC(=N)N)NC(=O)[C@@H](N)CCCNC(=N)N)C(=O)O | 12.3 (≈ 15.6 µg/mL) | 24.6 (≈ 31.2 µg/mL) | 197 (≈ 250 µg/mL) | – | – | – | – |
| C=C(C)[C@@H]1CC[C@]2(C(=O)O)CC[C@]3(C)[C@H](CC[C@@H]4[C@@]5(C)CC[C@H](OC(=O)CCc6cn(CC(=O)N[C@@H](CCCNC(=N)N)C(=O)O)nn6)C(C)(C)[C@@H]5CC[C@]43C)[C@@H]12 | 19.6 (≈ 15.6 µg/mL) | > 157 | > 157 | – | – | > 51 | > 1010 |
| C[C@H]1[C@H](C)CC[C@]2(C(=O)O)CC[C@]3(C)C(=CC[C@@H]4[C@@]5(C)CC[C@H](OC(=O)CCc6cn(CC(=O)N[C@@H](CCCNC(=N)N)C(=O)O)nn6)C(C)(C)[C@@H]5CC[C@]43C)[C@H]12 | 19.6 (≈ 15.6 µg/mL) | 78.6 (≈ 62.4 µg/mL) | > 157 | – | 2 | 8 | 158 |
| NC(N)=NCCC[C@H](NC(=O)[C@@H](N)CCCN=C(N)N)C(=O)O (H-Arg-Arg-OH) | > 1520 | > 1520 | > 1520 | – | – | – | – |
| C=C(C)[C@@H]1CC[C@]2(C(=O)OCc3cn(CC(=O)N[C@@H](CCCNC(=N)N)C(=O)N[C@@H](CCCNC(=N)N)C(=O)O)nn3)CC[C@]3(C)[C@H](CC[C@@H]4[C@@]5(C)CC[C@H](O)C(C)(C)[C@@H]5CC[C@]43C)[C@@H]12 | 4.3 (≈ 3.91 µg/mL) | 8.6 (≈ 7.81 µg/mL) | > 138 | 48 (≈ 52.9 mM) | – | – | – |

Continued, in another order:

| MIC [1] [µM] | MIC [2] [µM] | MIC [3] [µM] | solubility at 5 h [7] [mg/mL] | Molecule | selectivity ratio [4] | selectivity ratio [5] | HC50 at 1 h [6] [µM] |
| --- | --- | --- | --- | --- | --- | --- | --- |
| 3.7 (≈ 3.94 µg/mL) | 3.7 (≈ 3.94 µg/mL) | 14.7 (≈ 15.6 µg/mL) | – | C[C@H]1[C@H](C)CC[C@]2(C(=O)OCc3cn(CC(=O)N[C@@H](CCCNC(=N)N)C(=O)N[C@@H](CCCNC(=N)N)C(=O)N[C@@H](CCCNC(=N)N)C(=O)O)nn3)CC[C@]3(C)C(=CC[C@@H]4[C@@]5(C)CC[C@H](O)C(C)(C)[C@@H]5CC[C@]43C)[C@H]12 | 8 | 8 | 29 |
| 4.2 (≈ 7.75 µg/mL) | 4.2 (≈ 7.75 µg/mL) | > 68 | – | C=C(C)[C@@H]1CC[C@]2(C(=O)OCc3cn(CC(=O)N[C@@H](CCCNC(=N)N)C(=O)N[C@@H](CCCNC(=N)N)C(=O)N[C@@H](CCCNC(=N)N)C(=O)N[C@@H](CCCNC(=N)N)C(=O)N[C@@H](CCCNC(=N)N)C(=O)N[C@@H](CCCNC(=N)N)C(=O)N[C@@H](CCCNC(=N)N)C(=O)N[C@@H](CCCNC(=N)N)C(=O)O)nn3)CC[C@]3(C)[C@H](CC[C@@H]4[C@@]5(C)CC[C@H](O)C(C)(C)[C@@H]5CC[C@]43C)[C@@H]12 | – | – | – |
| 4.1 (≈ 7.74 µg/mL) | 4.1 (≈ 7.74 µg/mL) | > 66 | – | C[C@H]1[C@H](C)CCC2(C(=O)O)CC[C@]3(C)C(=CC[C@@H]4[C@@]5(C)CC[C@H](OC(=O)CCc6cn(CC(=O)N[C@@H](CCCNC(=N)N)C(=O)N[C@@H](CCCNC(=N)N)C(=O)N[C@@H](CCCNC(=N)N)C(=O)N[C@@H](CCCNC(=N)N)C(=O)N[C@@H](CCCNC(=N)N)C(=O)N[C@@H](CCCNC(=N)N)C(=O)N[C@@H](CCCNC(=N)N)C(=O)N[C@@H](CCCNC(=N)N)C(=O)O)nn6)C(C)(C)[C@@H]5CC[C@]43C)[C@H]12 (single isomer, unassigned) | > 103 | > 103 | > 424 |
| 4.2 (≈ 7.75 µg/mL) | 4.2 (≈ 7.75 µg/mL) | > 68 | – | C[C@H]1[C@H](C)CC[C@]2(C(=O)OCc3cn(CC(=O)N[C@@H](CCCNC(=N)N)C(=O)N[C@@H](CCCNC(=N)N)C(=O)N[C@@H](CCCNC(=N)N)C(=O)N[C@@H](CCCNC(=N)N)C(=O)N[C@@H](CCCNC(=N)N)C(=O)N[C@@H](CCCNC(=N)N)C(=O)N[C@@H](CCCNC(=N)N)C(=O)N[C@@H](CCCNC(=N)N)C(=O)O)nn3)CC[C@]3(C)C(=CC[C@@H]4[C@@]5(C)CC[C@H](O)C(C)(C)[C@@H]5CC[C@]43C)[C@H]12 | 10 | 10 | 41 |
| 4.1 (≈ 3.9 µg/mL) | 8.2 (≈ 7.79 µg/mL) | > 131 | – | C=C(C)[C@@H]1CC[C@]2(C(=O)O)CC[C@]3(C)[C@H](CC[C@@H]4[C@@]5(C)CC[C@H](OC(=O)CCc6cn(CC(=O)N[C@@H](CCCNC(=N)N)C(=O)N[C@@H](CCCNC(=N)N)C(=O)O)nn6)C(C)(C)[C@@H]5CC[C@]43C)[C@@H]12 | > 103 | > 205 | > 841 |
| 2.8 (≈ 3.85 µg/mL) | 5.7 (≈ 7.85 µg/mL) | > 91 | – | C[C@H]1[C@H](C)CC[C@]2(C(=O)OCc3cn(CC(=O)N[C@@H](CCCNC(=N)N)C(=O)N[C@@H](CCCNC(=N)N)C(=O)N[C@@H](CCCNC(=N)N)C(=O)N[C@@H](CCCNC(=N)N)C(=O)N[C@@H](CCCNC(=N)N)C(=O)O)nn3)CC[C@]3(C)C(=CC[C@@H]4[C@@]5(C)CC[C@H](O)C(C)(C)[C@@H]5CC[C@]43C)[C@H]12 | 6 | 11 | 25 |
| 2.7 (≈ 3.83 µg/mL) | 5.5 (≈ 7.8 µg/mL) | > 88 | – | C[C@H]1[C@H](C)CCC2(C(=O)O)CC[C@]3(C)C(=CC[C@@H]4[C@@]5(C)CC[C@H](OC(=O)CCc6cn(CC(=O)N[C@@H](CCCNC(=N)N)C(=O)N[C@@H](CCCNC(=N)N)C(=O)N[C@@H](CCCNC(=N)N)C(=O)N[C@@H](CCCNC(=N)N)C(=O)N[C@@H](CCCNC(=N)N)C(=O)O)nn6)C(C)(C)[C@@H]5CC[C@]43C)[C@H]12 (single isomer, unassigned) | – | – | – |
| 4.1 (≈ 7.74 µg/mL) | 4.1 (≈ 7.74 µg/mL) | > 66 | – | C=C(C)[C@@H]1CC[C@]2(C(=O)O)CC[C@]3(C)[C@H](CC[C@@H]4[C@@]5(C)CC[C@H](OC(=O)CCc6cn(CC(=O)N[C@@H](CCCNC(=N)N)C(=O)N[C@@H](CCCNC(=N)N)C(=O)N[C@@H](CCCNC(=N)N)C(=O)N[C@@H](CCCNC(=N)N)C(=O)N[C@@H](CCCNC(=N)N)C(=O)N[C@@H](CCCNC(=N)N)C(=O)N[C@@H](CCCNC(=N)N)C(=O)N[C@@H](CCCNC(=N)N)C(=O)O)nn6)C(C)(C)[C@@H]5CC[C@]43C)[C@@H]12 | > 103 | > 103 | > 424 |
| 4.1 (≈ 3.9 µg/mL) | 8.2 (≈ 7.79 µg/mL) | > 131 | – | C[C@H]1[C@H](C)CC[C@]2(C(=O)O)CC[C@]3(C)C(=CC[C@@H]4[C@@]5(C)CC[C@H](OC(=O)CCc6cn(CC(=O)N[C@@H](CCCNC(=N)N)C(=O)N[C@@H](CCCNC(=N)N)C(=O)O)nn6)C(C)(C)[C@@H]5CC[C@]43C)[C@H]12 | – | – | – |
| 3.5 (≈ 3.87 µg/mL) | 7 (≈ 7.75 µg/mL) | > 113 | – | C[C@H]1[C@H](C)CCC2(C(=O)O)CC[C@]3(C)C(=CC[C@@H]4[C@@]5(C)CC[C@H](OC(=O)CCc6cn(CC(=O)N[C@@H](CCCNC(=N)N)C(=O)N[C@@H](CCCNC(=N)N)C(=O)N[C@@H](CCCNC(=N)N)C(=O)O)nn6)C(C)(C)[C@@H]5CC[C@]43C)[C@H]12 (single isomer, unassigned) | 51 | 102 | 360 |
| 2.7 (≈ 3.83 µg/mL) | 2.7 (≈ 3.83 µg/mL) | > 88 | – | C=C(C)[C@@H]1CC[C@]2(C(=O)O)CC[C@]3(C)[C@H](CC[C@@H]4[C@@]5(C)CC[C@H](OC(=O)CCc6cn(CC(=O)N[C@@H](CCCNC(=N)N)C(=O)N[C@@H](CCCNC(=N)N)C(=O)N[C@@H](CCCNC(=N)N)C(=O)N[C@@H](CCCNC(=N)N)C(=O)N[C@@H](CCCNC(=N)N)C(=O)O)nn6)C(C)(C)[C@@H]5CC[C@]43C)[C@@H]12 | 117 | 117 | 323 |
